Experimental findings from PubChem BioAssay AID489006 (Sanford-Burnham Center for Chemical Genomics, 2010) are described below.

Structures are written as SMILES. The source made the active and inactive calls. The rule behind the calls is not given here.

In this experiment the test system is Jurkat NF-kB reporter, luminescence. Briefly: NF-kB reporter inhibition in Jurkat cells, dose response, selectivity assay for B-cell receptor NF-kB inhibitor project, cell-based, luminescence (AID 489006).
For the compound `COc1ccc(-c2ccc(N(C)C)cc2)cc1[C@H]1[C@H]2C=CC[C@@H](C)[C@@H]2C(=O)N1Cc1ccccc1`, the IC50 was > 80 µM (inactive).

`CN1C(=O)CSc2ccc(NC(=O)N3CCN(c4ccccc4)CC3)cc21`: the IC50 is > 80 µM (inactive).

In the case of `COC(=O)CSc1nnc(-c2sc3ccccc3c2Cl)o1`, the IC50 is 3.43 µM.

`CCOC(=O)/C=C(\C)Sc1cc(=O)oc2ccccc12`: the IC50 is 4 µM.

As for `CCNc1nc(C)c2cc(Br)c(=O)n(CC)c2n1`, the IC50 was 7.89 µM.

Turning to `NNC(=O)COc1ccc(-c2nccc(-c3ccc(F)cc3)n2)cc1`, the IC50 is 1.79 µM.

As to `COc1ccc(/C=C2\SC(=S)N(CCCC(=O)Nc3ccc(O)cc3)C2=O)cc1`, the IC50 was > 80 µM (inactive).

For `COc1ccc(C(=O)Nc2nnc(SCC(=O)Nc3ccc(NC(C)=O)cc3)s2)c(OC)c1`, the IC50 is > 80 µM (inactive).

On to `O=C(CN1C(=O)c2ccccc2S1(=O)=O)N1CCc2ccccc21`, for which the IC50 was 1.76 µM.

For the compound `CCN(CC)S(=O)(=O)c1ccc(N2CCOCC2)c(NC(=O)c2[nH]c(C)c(C(C)=O)c2C)c1`, the IC50 was 47 µM (inactive).

Consider `Cn1c(=NC(=O)CCl)sc2ccccc21`, for which the IC50 was 1.18 µM.

On to `Cc1nc2cc(-c3cccc(F)c3)nn2c(C)c1CCC(=O)N1CCC2(CC1)OCCO2`, for which the IC50 was 20.7 µM (inactive).

Regarding `O=C(O)CCSc1ncnc2sc(-c3ccccc3)cc12`, the IC50 is 1.07 µM.

Take `CC(C)Cn1c([N+](=O)[O-])nc2c1c(=O)[nH]c(=O)n2C`: the IC50 was 7.23 µM.

As for `COc1cccc(/C=C2/SC(=S)N(CCCC(=O)Nc3ccc(O)cc3)C2=O)c1`, the IC50 is 29.5 µM (inactive).

On to `c1ccc(CCNc2ncnc3ccccc23)cc1`, for which the IC50 was 64.2 µM (inactive).

Turning to `CCC(=O)N1c2ccccc2C(N(C(C)=O)c2ccccc2)CC1C` (centres undefined), the IC50 was > 80 µM (inactive).

With `COc1ccc(C2=NCc3nnc(C)n3-c3ccc(Cl)cc32)cc1Cl`, the IC50 was 36.4 µM (inactive).

With `CCCOc1ccc(NC(=O)C(=O)NCCCn2ccnc2)cc1`, the IC50 is > 80 µM (inactive).

On to `CC1CC(C)CN(S(=O)(=O)c2ccc(C(=O)NCCCn3ccnc3)cc2)C1` (centres undefined), for which the IC50 is 54.6 µM (inactive).

Take `CC(C)c1ccc(/C=C2\SC(=S)N(CCC(=O)NCCCn3ccnc3)C2=O)cc1`: the IC50 is 2.64 µM.

As to `O=C(CN1C(=O)c2ccccc2S1(=O)=O)c1ccccc1Cl`, the IC50 was 1.26 µM.

In the case of `O=C(N/N=C/c1cccnc1)c1cc(-c2ccccc2OCc2ccccc2)n[nH]1`, the IC50 is > 80 µM (inactive).

Take `Cc1ccc2nc(NC(=O)CSCC(=O)OCC(=O)c3ccc(Br)cc3)sc2c1`: the IC50 is 0.33 µM.

As for `Cc1ccc(/C=C2/SC(=S)N(CCCC(=O)Nc3ccc(O)cc3)C2=O)cc1`, the IC50 is 19.8 µM.

In the case of `CCOC(=O)N1CCN(CC(=O)Nc2ccc([N+](=O)[O-])cc2C(=O)Nc2ccccc2F)CC1`, the IC50 is 33.1 µM (inactive).

As for `CC(C)[C@H](N)c1nnc(SCC(=O)c2ccc(Cl)cc2)o1`, the IC50 was > 80 µM (inactive).

Turning to `CC(C)(O)/C=C/C(=O)[C@](C)(O)C1[C@H](O)C[C@@]2(C)C3CC=C4C(C[C@H](O)[C@@H](O)C4(C)C)[C@]3(C)C(=O)C[C@]12C` (some centres undefined), the IC50 was 31.3 µM (inactive).

`Cc1ccc(Nc2nc(N/N=C\c3ccc4c(c3)OCO4)nc(N3CCOCC3)n2)cc1`: the IC50 was 70.3 µM (inactive).

As to `COc1ccc(-c2n(Cc3ccccc3)c3ccccc3[n+]2Cc2ccccc2)cc1`, the IC50 was 42.7 µM (inactive).

For `Cc1csc(NC(=O)/C=C/c2ccc3c(c2)OCO3)n1`, the IC50 is > 80 µM (inactive).

For the compound `COc1ccc(/C=N\NC(=O)c2sccc2C)cc1Cn1nc(C)cc1C`, the IC50 is > 80 µM (inactive).

For `COc1ccc(/C=C2\SC(=S)N(CCC(=O)Nc3ccc(O)cc3)C2=O)cc1`, the IC50 was > 80 µM (inactive).

For `Cc1nc2cc(-c3ccccc3)nn2c(C)c1CCC(=O)NCc1ccco1`, the IC50 was > 80 µM (inactive).
